One assay has as its system T1, AjOMT2.
T1 construct: cloned in pET28a (BamHI/EcoRI), E. coli Transetta (DE3), Ni-NTA purified
In words: HPLC methyltransferase assay. In kind it is biochemical, Ardisia japonica. The settings on record: co-substrate SAM; metal-dependent (Mg2+); details in Supplementary Methods 5-7; read-out: apparent Km.

For another assay, the system named is T2, AjCGT1.
T2 construct: full-length cDNA in pET28a (BamHI/EcoRI), E. coli Transetta (DE3), Ni-NTA purified
Kind of assay: HPLC glycosyltransferase assay. The class given is biochemical, Ardisia japonica. To be noted: co-substrate UDP-Glc; details in Supplementary Methods 5-7; substrate unstable in buffer; read-out: apparent Km.

A word on the Km: it is the concentration of substrate that gives half-maximal velocity. As for `O=C(O)c1cc(O)c(O)c(O)c1` [compound 2, GA], the Michaelis constant (Km) in the assay on AjOMT2 was found to be 72 µM.
The same measure, in the same setting: then `O=C1O[C@@H]2[C@@H](O)[C@H](O)[C@@H](CO)O[C@H]2c2c1cc(O)c(O)c2O` [compound 6, norbergenin], with 494 µM.
On to `COc1c(O)cc(C(=O)O)cc1O` [compound 3, 4-OMGA], for which the Michaelis constant (Km) with AjCGT1 was 265 µM.
